Data taken from patent US9701689B2, “Substituted pyridines and pyridazines as CCR10 receptor inhibitors” (KYOWA HAKKO KIRIN CO., LTD., priority 2012, dated 2017).

Biological target: T1, human CCR10 (Homo sapiens, UniProt P46092)
T1 construct: expressed in transfected cells; host or cells: KJMGER8 cells (Namalwa cell-derived line), beta-estradiol-induced; hCCR10G16 cells
T1 sequence (P46092 1-362): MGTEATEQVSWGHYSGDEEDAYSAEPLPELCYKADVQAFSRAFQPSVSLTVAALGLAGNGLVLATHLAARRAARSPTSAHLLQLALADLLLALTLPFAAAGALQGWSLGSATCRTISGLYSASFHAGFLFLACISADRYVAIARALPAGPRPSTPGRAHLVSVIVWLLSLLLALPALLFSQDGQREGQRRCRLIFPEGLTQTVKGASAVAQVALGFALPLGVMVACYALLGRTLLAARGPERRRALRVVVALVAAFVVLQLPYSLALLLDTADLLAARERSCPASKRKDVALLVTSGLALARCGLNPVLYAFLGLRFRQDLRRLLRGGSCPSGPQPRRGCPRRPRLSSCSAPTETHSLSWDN
Test: CCR10 antagonistic effect: calcium assay of human CCR10 (CTACK-induced increase of intracellular calcium in hCCR10G16 cells)
Assay type: cell-based
Settings: at a concentration of not more than 1000 nmol/L; human CCR10-expressing hCCR10G16 cells, 300 nmol/L CTACK added; read-out: inhibition of increase in the calcium ion concentration
Procedure, shortened: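 KJMGER8-derived hCCR10G16 cells (CCR10 plus Gα16, induced 24 h with 10 nmol/L β-estradiol), Fluo-3 loaded, preincubated with compound 30 min at 37 °C. Stimulated with CTACK (300 nmol/L solution before addition); calcium read ~5 min by FDSS, max−min fluorescence; % inhibition vs control.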

Structure (SMILES) | inhibition at up to 1 µM [%]
Cc1ncc(Nc2c(C(=O)N3CCC(c4ccc(F)cc4)CC3)cnc(S(N)(=O)=O)c2Cl)c(C)n1 [Compound 219, 3-chloro-4-(2,4-dimethylpyrimidin-5-ylamino)-5-[4-(4-fluorophenyl)piperidine-1-carbonyl]pyridine-2-sulfonamide] | ≥ 50
Cc1c(S(N)(=O)=O)ncc(C(=O)N2CCC(c3ccc(F)cc3)CC2)c1NC(C)c1ccccc1 (stereo not shown) [Compound 220, 5-[4-(4-fluorophenyl)piperidine-1-carbonyl]-3-methyl-4-(1-phenylethylamino)pyridine-2-sulfonamide] | ≥ 50
Cc1c(S(N)(=O)=O)ncc(C(=O)N2CCC(c3ccc(F)cc3)CC2)c1NCc1cccnc1 [Compound 221, 5-[4-(4-fluorophenyl)piperidine-1-carbonyl]-3-methyl-4-(pyridin-3-ylmethylamino)pyridine-2-sulfonamide] | ≥ 50
Cc1c(S(=O)(=O)Nc2ccon2)ncc(C(=O)N2CCC(c3ccc(F)cc3)CC2)c1NCCc1ccccc1 [Compound 222, 5-[4-(4-fluorophenyl)piperidine-1-carbonyl]-N-(isoxazol-3-yl)-3-methyl-4-(phenethylamino)pyridine-2-sulfonamide] | ≥ 50
Cc1c(S(=O)(=O)Nc2ccon2)ncc(C(=O)N2CCC(c3ccc(F)cc3)CC2)c1NCc1ccccn1 [Compound 223, 5-[4-(4-fluorophenyl)piperidine-1-carbonyl]-N-(isoxazol-3-yl)-3-methyl-4-(pyridin-2-ylmethylamino)pyridine-2-sulfonamide] | ≥ 50
Cc1c(S(=O)(=O)Nc2ccon2)ncc(C(=O)N2CCC(c3ccc(F)cc3)CC2)c1NCCN1CCOCC1 [Compound 224, 5-[4-(4-fluorophenyl)piperidine-1-carbonyl]-N-(isoxazol-3-yl)-3-methyl-4-(2-morpholinoethylamino)pyridine-2-sulfonamide] | ≥ 50
O=C(c1cnc(S(=O)(=O)Nc2ccon2)c(F)c1NCc1ccccc1)N1CCC(c2ccc(F)cc2)CC1 [Compound 225, 4-(benzylamino)-3-fluoro-5-[4-(4-fluorophenyl)piperidine-1-carbonyl]-N-(isoxazol-3-yl)pyridine-2-sulfonamide] | ≥ 50
CCNC(=O)NS(=O)(=O)c1ncc(C(=O)N2CCC(c3ccc(F)cc3)CC2)c(Nc2ccccc2C)c1C [Compound 226, N-(ethylcarbamoyl)-5-[4-(4-fluorophenyl)piperidine-1-carbonyl]-3-methyl-4-(o-tolylamino)pyridine-2-sulfonamide] | ≥ 50
Cc1c(S(=O)(=O)Nc2ccon2)ncc(C(=O)N2CCC(c3ccc(F)cc3)CC2)c1NCC1CCC1 [Compound 227, 4-(cyclobutylmethylamino)-5-[4-(4-fluorophenyl)piperidine-1-carbonyl]-N-(isoxazol-3-yl)-3-methylpyridine-2-sulfonamide] | ≥ 50
Cc1c(S(N)(=O)=O)ncc(C(=O)N2CCC(c3ccc(F)cc3)CC2)c1NCc1cccc(C#N)c1 [Compound 228, 4-(3-cyanobenzylamino)-5-[4-(4-fluorophenyl)piperidine-1-carbonyl]-3-methylpyridine-2-sulfonamide] | ≥ 50
Cc1cc(F)ccc1Nc1cc(S(N)(=O)=O)nnc1C(=O)N1CCC(c2ccc(F)cc2)CC1 [Compound 229, 5-(4-fluoro-2-methylphenylamino)-6-[4-(4-fluorophenyl)piperidine-1-carbonyl]pyridazine-3-sulfonamide] | ≥ 50
NS(=O)(=O)c1ncc(C(=O)N2CCC(c3ccc(F)cc3)CC2)c(NC2(c3ccccc3)CC2)c1Cl [Compound 230, 3-chloro-5-[4-(4-fluorophenyl)piperidine-1-carbonyl]-4-(1-phenylcyclopropylamino)pyridine-2-sulfonamide] | ≥ 50
NS(=O)(=O)c1ncc(C(=O)N2CCC(c3ccc(F)cc3)CC2)c(NCc2cccs2)c1Cl [Compound 231, 3-chloro-5-[4-(4-fluorophenyl)piperidine-1-carbonyl]-4-(thiophen-2-ylmethylamino)pyridine-2-sulfonamide] | ≥ 50
COc1ccc(Nc2c(C(=O)N3CCC(c4ccc(F)cc4)CC3)cnc(S(=O)(=O)Nc3ccon3)c2C)c(C)c1 [Compound 234, 5-[4-(4-fluorophenyl)piperidine-1-carbonyl]-N-(isoxazol-3-yl)-4-(4-methoxy-2-methylphenylamino)-3-methylpyridine-2-sulfonamide] | ≥ 50
Cc1ccc(Nc2c(C(=O)N3CCC(c4ccc(F)cc4)CC3)cnc(S(=O)(=O)Nc3ccon3)c2C)c(F)c1 [Compound 235, 4-(2-fluoro-4-methylphenylamino)-5-[4-(4-fluorophenyl)piperidine-1-carbonyl]-N-(isoxazol-3-yl)-3-methylpyridine-2-sulfonamide] | ≥ 50
NS(=O)(=O)c1ncc(C(=O)N2CCC(c3ccc(F)cc3)CC2)c(N[C@H]2C[C@H]3CC[C@@H]2C3)c1Cl [Compound 236, 4-((1R,2S,4S)-bicyclo[2.2.1]heptan-2-ylamino)-3-chloro-5-[4-(4-fluorophenyl)piperidine-1-carbonyl]pyridine-2-sulfonamide] | ≥ 50
NS(=O)(=O)c1ncc(C(=O)N2CCC(c3ccc(F)cc3)CC2)c(NC2CCc3ccccc32)c1Cl (stereo not shown) [Compound 237, 3-chloro-4-(2,3-dihydro-1H-inden-1-ylamino)-5-[4-(4-fluorophenyl)piperidine-1-carbonyl]pyridine-2-sulfonamide] | ≥ 50
NS(=O)(=O)c1ncc(C(=O)N2CCC(c3ccc(F)cc3)CC2)c(Oc2cccc(F)c2)c1Cl [Compound 238, 3-chloro-4-(3-fluorophenoxy)-5-[4-(4-fluorophenyl)piperidine-1-carbonyl]pyridine-2-sulfonamide] | ≥ 50
CCc1ccccc1Nc1c(C(=O)N2CCC(c3ccc(F)cc3)CC2)cnc(S(=O)(=O)Nc2ccon2)c1C [Compound 239, 4-(2-ethylphenylamino)-5-[4-(4-fluorophenyl)piperidine-1-carbonyl]-N-(isoxazol-3-yl)-3-methylpyridine-2-sulfonamide] | ≥ 50
Cc1cc(F)ccc1Nc1c(C(=O)N2CCC(c3ccc(F)cc3)CC2)nnc(S(N)(=O)=O)c1Cl [Compound 240, 4-chloro-5-(4-fluoro-2-methylphenylamino)-6-[4-(4-fluorophenyl)piperidine-1-carbonyl]pyridazine-3-sulfonamide] | ≥ 50
Cn1ncc2cc(Nc3c(C(=O)N4CCC(c5ccc(F)cc5)CC4)cnc(S(N)(=O)=O)c3Cl)ccc21 [Compound 242, 3-chloro-5-[4-(4-fluorophenyl)piperidine-1-carbonyl]-4-(1-methyl-1H-indazol-5-ylamino)pyridine-2-sulfonamide] | ≥ 50
NS(=O)(=O)c1ncc(C(=O)N2CCC(c3ccc(F)cc3)CC2)c(Nc2ccc3c(c2)CCC3=O)c1Cl [Compound 243, 3-chloro-5-[4-(4-fluorophenyl)piperidine-1-carbonyl]-4-(1-oxo-2,3-dihydro-1H-inden-5-ylamino)pyridine-2-sulfonamide] | ≥ 50
Cc1c(S(=O)(=O)Nc2ccon2)ncc(C(=O)N2CCC(c3ccc(F)cc3)CC2)c1Nc1cccc(Cl)c1 [Compound 244, 4-(3-chlorophenylamino)-5-[4-(4-fluorophenyl)piperidine-1-carbonyl]-N-(isoxazol-3-yl)-3-methylpyridine-2-sulfonamide] | ≥ 50
Cc1nc(C(F)(F)F)ccc1Nc1c(C(=O)N2CCC(c3ccc(F)cc3)CC2)cnc(S(N)(=O)=O)c1C [Compound 245, 5-[4-(4-fluorophenyl)piperidine-1-carbonyl]-3-methyl-4-[2-methyl-6-(trifluoromethyl)pyridin-3-ylamino]pyridine-2-sulfonamide] | ≥ 50
Cc1c(S(=O)(=O)Nc2ccon2)ncc(C(=O)N2CCC(c3ccc(F)cc3)CC2)c1Nc1cc(F)c(F)cc1F [Compound 246, 5-[4-(4-fluorophenyl)piperidine-1-carbonyl]-N-(isoxazol-3-yl)-3-methyl-4-(2,4,5-trifluorophenylamino)pyridine-2-sulfonamide] | ≥ 50
Cc1c(S(=O)(=O)Nc2ccon2)ncc(C(=O)N2CCC(c3ccc(F)cc3)CC2)c1Nc1ccc2c(c1)COC2 [Compound 247, 4-(1,3-dihydroisobenzofuran-5-ylamino)-5-[4-(4-fluorophenyl)piperidine-1-carbonyl]-N-(isoxazol-3-yl)-3-methylpyridine-2-sulfonamide] | ≥ 50
Cc1ncc(Cl)cc1Nc1c(C(=O)N2CCC(c3ccc(F)cc3)CC2)cnc(S(=O)(=O)Nc2ccon2)c1C [Compound 248, 4-(5-chloro-2-methylpyridin-3-ylamino)-5-[4-(4-fluorophenyl)piperidine-1-carbonyl]-N-(isoxazol-3-yl)-3-methylpyridine-2-sulfonamide] | ≥ 50
Cc1cccc(Oc2c(C(=O)N3CCC(c4ccc(F)cc4)CC3)cnc(S(=O)(=O)Nc3ccon3)c2C)c1 [Compound 249, 5-[4-(4-fluorophenyl)piperidine-1-carbonyl]-N-(isoxazol-3-yl)-3-methyl-4-(m-tolyloxy)pyridine-2-sulfonamide] | ≥ 50
